Data taken from article PMC6315428, “Quantification of α-Thujone and Its Metabolites in Human Urine after Consumption of a Sage Infusion Using Stable Isotope Dilution Assays” (Toxins, 2018).

Experiments:
[1] = Human study: urinary excretion of α-thujone and hydroxythujones after consumption of a sage infusion (SIDA, SPME-GC-MS and LC-MS/MS); type: in vivo, humans; details: for detection in urine of the volunteers: after consumption of 575.0 µg α-thujone, hydroxythujones after liberation from glucuronides/sulfates; for Total excretion in human urine: 575 µg α-thujone as sage infusion, urine over 24 h; for maximum concentration in urine: volunteer with the highest dose of 14.3 µg/kg bw, after sage infusion; for minimum degree of glucuronidation/sulfation: human urine, calculated from two samples with free hydroxythujones above LOQ; for time after which no additional excretion was observed: after ingestion of sage infusion, all but test person 2 for 7-OH
Method: The protocol of the study was approved by the Ethics Committee of the Faculty of Medicine of the Technische Universität München (1996/07). Written informed consent was obtained from participants before inclusion into the study. Seven healthy, non-smoking volunteers, six Caucasian, participated in the study (3 men and 4 women, mean (±standard deviation [SD]) age 29.7 (±9.21) years, and mean (±SD) body mass index 23.1 (±5.08) kg/m^2). For 24 h prior to the study, the volunteers avoided herbs and spices containing α-thujone for a wash out. A blank urine sample was collected as a control from each volunteer before consumption of the sage infusion. On an empty stomach, the volunteers drank the tea (575 µg α-thujone) within 10 min, and urine was collected at 1, 1.5, 2.5, 3.5 h, and in the time frames of 4.5–6, 6–8, 8–14, 14–24 h after consumption. A defined meal (cheese sandwich) was eaten after 2 h. The samples were stored at 4 °C until preparation for analysis.
The cooled samples were adjusted with HCl to pH 5 and divided into 2 mL aliquots. A solution containing the labeled hydroxythujones (220–430 ng) and β-glucuronidase (5000 units/mL sample; 1 unit liberates […] phenolphthalein from its glucuronide per hour at pH 5.0 at 37 °C) was added, and the mixture stirred at 37 °C for 15 h. Afterwards, the samples were centrifuged (16000 rpm, 4 °C, 15 min) and the supernatant was subjected to solid phase extraction (SPE).
The SPE tubes (ENVI-18, 100 mg, Supelco) were equilibrated with 2 × 1 mL methanol and 2 × 1 mL water. Thereafter, the clear supernatant was loaded on the columns and was slowly passed through without suction. The protein residue was reextracted with water/methanol (95:5, 1 mL), and also loaded on the SPE tubes. The tubes were washed with water/methanol (95:5, 2 × 1 mL) by suction, and then dried carefully. Analytes were slowly eluted with water/acetonitrile (50:50, 500 µL). The extracts were analyzed by LC-MS/MS.
Measurements on the LC-MS/MS were performed using a Shimadzu LC-30A Prominence system (Shimadzu, Kyoto, Japan) interfaced to an LCMS-8050 Triple Quadrupol mass spectrometer (Shimadzu, Kyoto, Japan). A total of 40 µL was injected onto a YMC Pro Pack C4 at 30 °C oven temperature and flow of 0.5 mL/min with water (solvent A) and ACN (solvent B). The gradient was started and held at 5% B for 2 min, raised linearly from 5% B to 30% B during the next 1 min, then raised linearly to 33% within the next 7 min, and to 100% B within the next 1 min. Thereafter, the mobile phase returned to 5% B within 2 min, and the system was equilibrated for 18 min before the next run. The atmospheric pressure chemical ionization (APCI) source was operated in the positive mode under the following conditions: nebulizing gas flow 3 L/min; interface temperature 350 °C; desolvation line temperature 200 °C; drying gas flow 5 L/min. For MS/MS of the hydroxythujones, the mass transitions (m/z precursor ion/ m/z product ion) 151/81 (collision energy = −17 V) and 151/123 (−14 V) for 2-OH, 151/109 (−13 V) and 151/91 (−23 V) for 4-OH, 151/105 (−18 V) and 151/81 (−17 V) for 7-OH, 157/129 (−14 V) and 157/87 (−15 V) for d6-2-OH, […] (−16 V) and 157/91 (−23 V) for d6-4-OH, and 157/129 (−14 V) and 157/99 (−16 V) for d6-7-OH were used.
To determine the hydroxythujone content in urine, calibration functions for 2-OH, 4-OH, and 7-OH were generated with the respective labeled compounds. Calibrators with unlabeled and labeled compounds were prepared in an aqueous solution, in seven different ratios for the unlabeled compounds ranging from 3.1–601.9 µg/mL, while maintaining the labelled compounds constant at concentrations of 450 µg/mL each. The samples were measured by LC-MS/MS. From the relation of area ratios to molar ratios, calibration curves were constructed. […]

[2] = recently deduced; cited from earlier work
[3] = tested on: gamma-aminobutyric acid A (GABAA) receptor; set-up: method as in PMID 10725394; details: leads to convulsions and excitations at higher concentrations in animal studies; cited from earlier work
[4] = set-up: method as in PMID 11368559; details: mouse urine; cited from earlier work
[5] = set-up: method as in PMID 20425757; details: cited from earlier work
[6] = test person 1, dose/bw 14.3 µg/kg, after glucuronide/sulfate deconjugation
[7] = test person 2, dose/bw 11.4 µg/kg, after glucuronide/sulfate deconjugation
[8] = test person 3, dose/bw 8.2 µg/kg, after glucuronide/sulfate deconjugation
[9] = test person 4, dose/bw 6.7 µg/kg, after glucuronide/sulfate deconjugation
[10] = test person 5, dose/bw 8.9 µg/kg, after glucuronide/sulfate deconjugation
[11] = test person 6, dose/bw 4.6 µg/kg, after glucuronide/sulfate deconjugation
[12] = test person 7, dose/bw 7.6 µg/kg, after glucuronide/sulfate deconjugation

Row | detection in urine of the volunteers [1] | minimum degree of glucuronidation/sulfation [1] | Total excretion in human urine [1, 6] | Total excretion in human urine [1, 7] | Total excretion in human urine [1, 8] | Total excretion in human urine [1, 9] | Total excretion in human urine [1, 10] | Total excretion in human urine [1, 11] | Total excretion in human urine [1, 12] | time after which no additional excretion was observed ([1]; urine) | SMILES | degree of glucuronidation [4] | further results
1 | – | – | – | – | – | – | – | – | – | – | CC(C)[C@]12CC(=O)[C@H](C)[C@H]1C2 [thujone] | – | effect on GABAA receptor [3]: inhibits
2 | not being detectable | – | – | – | – | – | – | – | – | – | CC(C)[C@@]12C[C@@H]1[C@@H](C)C(=O)[C@@H]2O [2-OH, 2-hydroxythujone] | 85% | detection in urine of the volunteers ([1]; listed as 2-Hydroxythujone): not present
3 | – | – | – | – | – | – | – | – | – | – | CC12CCC(CC1)C(C)(C)O2 [1,8-cineole] | – | dose recovered as the sum of 2-, 9-, 3- and 7-hydroxy-1,8-cineole [5]: 52.5%
4 | detectable | ≥ 66% | 13.9 µg | 17.9 µg | 14.6 µg | 11.8 µg | 16.5 µg | 17.0 µg | 26.3 µg | 7 to 8 h | CC(C)[C@]12CC(=O)[C@@](C)(O)[C@H]1C2 [4-OH, 4-hydroxythujone] | 61% | –
5 | detectable | ≥ 55% | 15.6 µg | 20.9 µg | 8.6 µg | 4.0 µg | 7.8 µg | 6.9 µg | 5.9 µg | 7 to 8 h | C[C@H]1C(=O)C[C@]2(C(C)(C)O)C[C@H]12 [7-OH, 7-hydroxythujone] | 2% | slower excretion until ([1]; urine, test person 2): 16 h

Row | SMILES | detection in urine of the volunteers [1] | minimum degree of glucuronidation/sulfation [1] | Total excretion in human urine [1, 6] | Total excretion in human urine [1, 7] | Total excretion in human urine [1, 8] | Total excretion in human urine [1, 9] | Total excretion in human urine [1, 10] | Total excretion in human urine [1, 11] | Total excretion in human urine [1, 12] | time after which no additional excretion was observed ([1]; urine) | degree of glucuronidation [4] | further results
6 | CC(C)[C@]12CC(=O)[C@H](C)[C@H]1C2 [α-thujone] | detectable | – | – | – | – | – | – | – | – | – | – | detection in urine of the volunteers ([1]; listed as α-Thujone): detectable in a low amount; time after which urine concentration fell under the LODs ([1]; most volunteers): 4.5 h; Total excretion in human urine ([1]; test person 1, dose/bw 14.3 µg/kg): 0.0451 µg; Total excretion in human urine ([1]; test person 2, dose/bw 11.4 µg/kg): 0.008 µg; Total excretion in human urine ([1]; test person 3, dose/bw 8.2 µg/kg): 0.0361 µg; Total excretion in human urine ([1]; test person 4, dose/bw 6.7 µg/kg): 0.0163 µg; Total excretion in human urine ([1]; test person 5, dose/bw 8.9 µg/kg): 0.0107 µg; Total excretion in human urine ([1]; test person 6, dose/bw 4.6 µg/kg): 0.025 µg; Total excretion in human urine ([1]; test person 7, dose/bw 7.6 µg/kg): 0.0351 µg; time within which excreted ([1]; urine, almost all volunteers): ≤ 8 h; maximum concentration in urine [1]: 94.3 ng/L; maximum concentration in urine ([1]; listed as α-Thujone): 94 ng/L; acceptable daily intake [2]: 110 µg/kg bw/d
